Source: patent US11339130B1 (Blade Therapeutics, Inc., priority 2016, dated 2022)
Like-named read-outs stand apart in the source and are kept apart here.

Experiments:
Type in all cases: biochemical
Human Calpain 1/NS1 = biological target: T1, Human Calpain 1/NS1 (Homo sapiens, UniProt P07384); assay: Calpain inhibition continuous fluorescence (FRET) assay, Human Calpain 1/NS1; settings: read-out: Human Calpain 1/NS1 IC50
T1 sequence (P07384 1-714): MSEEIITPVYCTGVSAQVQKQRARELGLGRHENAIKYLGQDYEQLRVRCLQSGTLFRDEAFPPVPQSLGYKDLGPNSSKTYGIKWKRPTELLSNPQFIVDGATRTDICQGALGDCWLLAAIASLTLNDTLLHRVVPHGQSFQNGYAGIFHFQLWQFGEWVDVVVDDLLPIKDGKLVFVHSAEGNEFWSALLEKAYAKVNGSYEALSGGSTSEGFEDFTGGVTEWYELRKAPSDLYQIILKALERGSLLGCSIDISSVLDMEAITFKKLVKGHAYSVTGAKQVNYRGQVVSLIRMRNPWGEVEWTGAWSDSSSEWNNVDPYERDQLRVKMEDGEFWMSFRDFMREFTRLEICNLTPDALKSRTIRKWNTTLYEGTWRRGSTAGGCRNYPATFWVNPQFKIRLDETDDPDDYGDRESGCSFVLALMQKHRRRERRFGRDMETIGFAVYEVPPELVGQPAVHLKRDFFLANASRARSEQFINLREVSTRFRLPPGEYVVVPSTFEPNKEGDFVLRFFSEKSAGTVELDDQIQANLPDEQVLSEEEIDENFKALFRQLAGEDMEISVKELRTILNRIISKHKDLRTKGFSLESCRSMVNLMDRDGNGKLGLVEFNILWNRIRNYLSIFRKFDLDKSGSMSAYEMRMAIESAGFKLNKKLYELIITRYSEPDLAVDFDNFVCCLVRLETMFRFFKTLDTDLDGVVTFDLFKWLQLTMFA
T1 sequence (P04632 1-268 partner): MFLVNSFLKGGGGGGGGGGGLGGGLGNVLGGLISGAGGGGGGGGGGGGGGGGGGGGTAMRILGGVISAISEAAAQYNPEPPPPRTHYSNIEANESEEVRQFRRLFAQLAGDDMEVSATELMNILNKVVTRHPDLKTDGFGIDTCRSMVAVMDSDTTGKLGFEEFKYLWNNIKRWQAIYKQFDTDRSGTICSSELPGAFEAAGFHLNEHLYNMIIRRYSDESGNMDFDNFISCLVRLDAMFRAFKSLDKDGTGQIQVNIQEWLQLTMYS
Method in brief: (§1)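 Inhibitors were preincubated with calpain in 50 mM Tris pH 7.5, 100 mM NaCl, 1 mM DTT at 25C. Reactions were started with 5-FAM/QXL 520 FRET peptide substrate plus CaCl2 and read at 490/520 nm for 10 min. IC50s came from 4-parameter fits of slope rates (1-5 min).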

Human Calpain 2/NS1 = biological target: T2, Human Calpain 2/NS1 (Homo sapiens, UniProt P17655); assay: Calpain inhibition continuous fluorescence (FRET) assay, Human Calpain 2/NS1; settings: read-out: Human Calpain 2/NS1 IC50
T2 sequence (P17655 1-700): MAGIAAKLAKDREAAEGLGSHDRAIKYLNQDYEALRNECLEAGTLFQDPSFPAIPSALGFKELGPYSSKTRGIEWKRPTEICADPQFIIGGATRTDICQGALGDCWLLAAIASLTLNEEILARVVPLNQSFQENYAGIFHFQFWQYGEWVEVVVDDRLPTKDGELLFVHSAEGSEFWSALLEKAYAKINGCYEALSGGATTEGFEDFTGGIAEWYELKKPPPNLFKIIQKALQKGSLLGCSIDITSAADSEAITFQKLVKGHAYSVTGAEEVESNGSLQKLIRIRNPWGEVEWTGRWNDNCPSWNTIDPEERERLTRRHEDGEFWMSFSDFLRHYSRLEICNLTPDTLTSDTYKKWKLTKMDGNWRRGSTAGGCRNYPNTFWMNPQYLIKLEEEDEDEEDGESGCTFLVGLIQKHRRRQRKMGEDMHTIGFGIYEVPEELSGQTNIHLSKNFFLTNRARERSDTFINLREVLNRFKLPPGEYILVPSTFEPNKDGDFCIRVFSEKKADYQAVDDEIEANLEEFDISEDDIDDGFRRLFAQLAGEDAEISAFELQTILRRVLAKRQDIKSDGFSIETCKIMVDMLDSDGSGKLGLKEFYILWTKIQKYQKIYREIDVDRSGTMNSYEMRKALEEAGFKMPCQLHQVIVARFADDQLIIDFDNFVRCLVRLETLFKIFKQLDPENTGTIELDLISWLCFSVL
T2 sequence (P04632 1-268 partner): T1 sequence (P04632 1-268 partner)
Method in brief: as §1

Human Calpain 9/NS1 = biological target: T3, Human Calpain 9/NS1 (Homo sapiens, UniProt O14815); assay: Calpain inhibition continuous fluorescence (FRET) assay, Human Calpain 9/NS1; settings: read-out: Human Calpain 9/NS1 IC50
T3 sequence (O14815 1-690): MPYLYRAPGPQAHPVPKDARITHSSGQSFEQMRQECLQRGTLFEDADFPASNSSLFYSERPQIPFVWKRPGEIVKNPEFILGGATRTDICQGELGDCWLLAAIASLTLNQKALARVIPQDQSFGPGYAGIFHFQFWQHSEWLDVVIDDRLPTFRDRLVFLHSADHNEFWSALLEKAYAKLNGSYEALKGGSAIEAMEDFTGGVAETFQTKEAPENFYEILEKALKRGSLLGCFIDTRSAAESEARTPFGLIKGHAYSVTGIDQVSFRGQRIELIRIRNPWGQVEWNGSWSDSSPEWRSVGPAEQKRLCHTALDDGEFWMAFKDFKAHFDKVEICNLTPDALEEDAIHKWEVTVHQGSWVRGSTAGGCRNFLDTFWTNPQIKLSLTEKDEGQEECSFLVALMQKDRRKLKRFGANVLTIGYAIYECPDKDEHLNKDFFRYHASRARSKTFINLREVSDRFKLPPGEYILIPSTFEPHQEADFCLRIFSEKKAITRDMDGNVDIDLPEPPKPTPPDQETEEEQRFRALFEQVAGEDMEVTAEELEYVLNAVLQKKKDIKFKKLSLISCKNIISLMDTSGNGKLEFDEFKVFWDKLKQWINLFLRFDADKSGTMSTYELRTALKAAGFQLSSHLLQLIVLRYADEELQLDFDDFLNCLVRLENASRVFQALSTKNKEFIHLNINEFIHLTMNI
T3 sequence (P04632 1-268 partner): T1 sequence (P04632 1-268 partner)
Method in brief: as §1

Row | Structure (SMILES) | IC50 (Human Calpain 1/NS1; Column A) [µM] | IC50 (Human Calpain 2/NS1; Column B) [µM] | IC50 (Human Calpain 9/NS1; Column C) [µM] | IC50 (Human Calpain 1/NS1) [µM] | IC50 (Human Calpain 2/NS1) [µM] | IC50 (Human Calpain 9/NS1) [µM]
1 | NC(=O)C(=O)[C@H](Cc1ccccc1)NC(=O)[C@@H]1C[C@@H](OCc2ccccc2)CN1c1ccccc1 [Compound 220, (2S,4R)—N—((S)-4-amino-3,4-dioxo-1-phenylbutan-2-yl)-4-(benzyloxy)-1-phenylpyrrolidine-2-carboxamide] | < 3 | < 3 | 3 to 10 | – | – | –
2 | Cc1cc(C(=O)N[C@H](C=O)Cc2ccccc2)n(-c2ccccc2)n1 [Compound 8, (S)-3-methyl-N-(1-oxo-3-phenylpropan-2-yl)-1-phenyl-1H-pyrazole-5-Carboxamide] | < 3 | < 3 | < 3 | – | – | –
3 | O=C(NC1CC1)C(=O)[C@H](Cc1ccccc1)NC(=O)c1cncn1-c1n[nH]c2ccccc12 [Compound 51, (S)—N-(4-(cyclopropylamino)-3,4-dioxo-1-phenylbutan-2-yl)-1-(1H-indazol-3-yl)-1H-imidazole-5-carboxamide] | 3 to 10 | 3 to 10 | > 10 | – | – | –
4 | NC(=O)C(=O)C(Cc1ccccc1)NC(=O)c1ccn(Cc2ccccc2)n1 (stereo not drawn) [Compound 284, N-(4-amino-3,4-dioxo-1-phenylbutan-2-yl)-1-benzyl-1H-pyrazole-3-carboxamide] | > 10 | > 10 | > 10 | – | – | –
5 | Cc1cccc(-c2nn(C)cc2C(=O)NC(Cc2ccccc2)C(=O)C(N)=O)n1 (stereo not drawn) [Compound 316, N-(4-amino-3,4-dioxo-1-phenylbutan-2-yl)-1-methyl-3-(6-methylpyridin-2-yl)-1H-pyrazole-4-carboxamide] | – | – | – | > 10 | > 10 | 3 to 10
6 | Cn1ncc(C(=O)N[C@@H](Cc2ccccc2)C(=O)C(N)=O)c1-c1ncccn1 [Compound 191, (S)—N-(4-amino-3,4-dioxo-1-phenylbutan-2-yl)-1-methyl-5-(pyrimidin-2-yl)-1H-pyrazole-4-carboxamide] | < 3 | < 3 | < 3 | – | – | –
7 | NC(=O)C(=O)[C@H](Cc1ccccc1)NC(=O)c1occc1-c1ccccc1 [Compound 104, (S)—N-(4-amino-3,4-dioxo-1-phenylbutan-2-yl)-3-phenylfuran-2-carboxamide] | < 3 | < 3 | < 3 | – | – | –
8 | NC(=O)C(=O)[C@H](Cc1ccccc1)NC(=O)c1cncn1-c1nc2ccccc2[nH]1 [Compound 70, (S)—N-(4-amino-3,4-dioxo-1-phenylbutan-2-yl)-1-(1H-benzo[d]imidazol-2-yl)-1H-imidazole-5-carboxamide] | < 3 | < 3 | < 3 | – | – | –
9 | Cc1noc(-c2ccccc2)c1C(=O)N[C@@H](Cc1ccccc1)C(=O)C(=O)NCc1cccc(OC(F)(F)F)c1 [Compound 150, (S)—N-(3,4-dioxo-1-phenyl-4-((3-(trifluoromethoxy)benzyl)amino)butan-2-yl)-3-methyl-5-phenylisoxazole-4-carboxamide] | > 10 | > 10 | > 10 | – | – | –
10 | Cn1ncc(C(=O)N[C@@H](Cc2ccccc2)C(=O)C(N)=O)c1-c1cncnc1 [Compound 176, (S)—N-(4-amino-3,4-dioxo-1-phenylbutan-2-yl)-1-methyl-5-(pyrimidin-5-yl)-1H-pyrazole-4-carboxamide] | < 3 | < 3 | < 3 | – | – | –
11 | O=C[C@H](Cc1ccccc1)NC(=O)c1cncn1-c1nc2ccccc2[nH]1 [Compound 90, (S)-1-(1H-benzo[d]imidazol-2-yl)-N-(1-oxo-3-phenylpropan-2-yl)-1H-imidazole-5-carboxamide] | < 3 | < 3 | 3 to 10 | – | – | –
12 | Cc1cc(C(=O)N[C@@H](Cc2ccccc2)C(=O)C(N)=O)n(-c2ccncc2)n1 [Compound 209, (S)—N-(4-amino-3,4-dioxo-1-phenylbutan-2-yl)-3-methyl-1-(pyridin-4-yl)-1H-pyrazole-5-carboxamide] | < 3 | < 3 | < 3 | – | – | –
13 | NC(=O)C(=O)[C@H](Cc1ccccc1)NC(=O)c1cncn1-c1n[nH]c2ccccc12 [Compound 69, (S)—N-(4-amino-3,4-dioxo-1-phenylbutan-2-yl)-1-(1H-indazol-3-yl)-1H-imidazole-5-carboxamide] | < 3 | < 3 | < 3 | – | – | –
14 | O=C(NC1CC1)C(=O)[C@H](Cc1ccccc1)NC(=O)c1cncn1-c1cc(-c2ncco2)ccn1 [Compound 77, (S)—N-(4-(cyclopropylamino)-3,4-dioxo-1-phenylbutan-2-yl)-1-(4-(oxazol-2-yl)pyridin-2-yl)-1H-imidazole-5-carboxamide] | < 3 | 3 to 10 | > 10 | – | – | –
15 | Cc1cc(C)nc(-n2nc(C)cc2C(=O)N[C@@H](Cc2ccccc2)C(=O)C(N)=O)c1 [Compound 123, (S)—N-(4-amino-3,4-dioxo-1-phenylbutan-2-yl)-1-(4,6-dimethylpyridin-2-yl)-3-methyl-1H-pyrazole-5-carboxamide] | < 3 | < 3 | < 3 | – | – | –
16 | O=C(NC1CC1)C(=O)[C@H](Cc1ccccc1)NC(=O)c1nn[nH]c1-c1ccccc1 [Compound 204, (S)—N-(4-(cyclopropylamino)-3,4-dioxo-1-phenylbutan-2-yl)-5-phenyl-1H-1,2,3-triazole-4-carboxamide] | > 10 | > 10 | > 10 | – | – | –
17 | Cc1cc(-n2nc(C)cc2C(=O)N[C@@H](Cc2ccccc2)C(=O)C(N)=O)nc(C)n1 [Compound 235, (S)—N-(4-amino-3,4-dioxo-1-phenylbutan-2-yl)-1-(2,6-dimethylpyrimidin-4-yl)-3-methyl-1H-pyrazole-5-carboxamide] | < 3 | < 3 | < 3 | – | – | –
18 | Cc1cc(-n2nc(C(=O)N[C@@H](Cc3ccccc3)C(=O)C(N)=O)cc2C)nc(C)n1 [Compound 232, (S)—N-(4-amino-3,4-dioxo-1-phenylbutan-2-yl)-1-(2,6-dimethylpyrimidin-4-yl)-5-methyl-1H-pyrazole-3-carboxamide] | > 10 | > 10 | 3 to 10 | – | – | –
